Results reported in patent publication US20090156646A1, “PYRIDYLPHENOL COMPOUND AND USE THEREOF” (TAKEDA PHARMACEUTICAL COMPANY LIMITED, priority 2005, published 2009).

Key:
[1] = biological target: T1, human metastin receptor hOT7T175 (Homo sapiens, UniProt Q969F8, L364H); experiment: binding inhibiting activity: 125I-metastin (40-54) binding to cell membrane fraction of h175 KB34 cells; conditions: room temperature 60 minutes, read-out: binding inhibiting activity, represented by the IC50 value
T1 construct: encoding the entire length of human metastin receptor hOT7T175; expressed in transfected cells; host or cells: CHO/dhFr- cells (ATCC #CRL-9096) stably transfected with pAKKO-hOT7T175; clone h175-16 was used as whole cells for FLIPR
T1 sequence (Q969F8 whole entry L364H): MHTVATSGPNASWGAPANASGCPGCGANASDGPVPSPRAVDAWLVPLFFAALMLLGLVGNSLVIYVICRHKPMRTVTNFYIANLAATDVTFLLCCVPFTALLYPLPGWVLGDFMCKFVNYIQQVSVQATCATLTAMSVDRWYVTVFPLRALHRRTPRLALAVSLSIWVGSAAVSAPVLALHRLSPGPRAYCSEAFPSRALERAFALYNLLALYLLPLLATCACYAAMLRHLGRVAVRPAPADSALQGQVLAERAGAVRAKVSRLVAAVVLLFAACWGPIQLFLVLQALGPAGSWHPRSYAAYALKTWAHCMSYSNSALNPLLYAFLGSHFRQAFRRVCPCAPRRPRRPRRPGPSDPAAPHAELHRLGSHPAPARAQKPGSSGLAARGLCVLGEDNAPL
Method in brief: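 The assay buffer (pH 7.4 Tris with magnesium acetate, EGTA and a protease-inhibitor cocktail) was used either plain or supplemented with 1 mg/ml BSA. The radioligand was 125I-labelled human metastin (40-54). The receptor source was a 250-fold diluted membrane fraction of the stable CHO/dhfr− line h175 KB34.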

Structure (SMILES)	IC50 [1] [µM]	melting point [°C]
COc1c(C(=O)NCCN)cccc1-c1cc(-c2ccccc2O)nc(NC(=O)c2ccco2)c1C#N.Cl [Example 273, N-[4-(3-{[(2-aminoethyl)amino]carbonyl}-2-methoxyphenyl)-3-cyano-6-(2-hydroxyphenyl)pyridin-2-yl]-2-furamide hydrochloride]	≤ 10	182 to 188
CC(C)(CN)CNC(=O)c1cccc(-c2cc(-c3ccc(F)cc3O)nc(NC(=O)c3cccs3)c2C#N)c1.Cl [Example 80, N-[4-(3-{[(3-amino-2,2-dimethylpropyl)amino]carbonyl}phenyl)-3-cyano-6-(4-fluoro-2-hydroxyphenyl)pyridin-2-yl]thiophene-2-carboxamide hydrochloride]	≤ 10	265 to 268
Cl.N#Cc1c(-c2cccc(NC(=O)C(N)c3ccccc3)c2)cc(-c2ccc(F)cc2O)nc1NC(=O)c1ccco1 (centres unmarked) [Example 258, N-[4-(3-{[amino(phenyl)acetyl]amino}phenyl)-3-cyano-6-(4-fluoro-2-hydroxyphenyl)pyridin-2-yl]-2-furamide hydrochloride]	≤ 10	224 to 225
CCCC(N)CC(=O)Nc1cccc(-c2cc(-c3ccc(F)cc3O)nc(NC(=O)c3ccco3)c2C#N)c1.Cl (centres unmarked) [Example 265, N-[4-{3-[(3-aminohexanoyl)amino]phenyl}-3-cyano-6-(4-fluoro-2-hydroxyphenyl)pyridin-2-yl]-2-furamide hydrochloride]	≤ 10	214 to 217
Cl.N#Cc1c(-c2cccc(C(=O)N3CCC(N)CC3)c2)cc(-c2ccccc2O)nc1NC(=O)c1cccs1 [Example 5, N-[4-{3-[(4-aminopiperidine-1-yl)carbonyl]phenyl}-3-cyano-6-(2-hydroxyphenyl)pyridin-2-yl]thiophene-2-carboxamide hydrochloride]	≤ 10	215 to 218
Cl.N#Cc1c(-c2cccc(C(=O)NCC3CCCCN3)c2)cc(-c2ccc(Cl)cc2O)nc1NC(=O)c1ccco1 (centres unmarked) [Example 84, N-[6-(4-chloro-2-hydroxyphenyl)-3-cyano-4-(3-{[(piperidin-2-ylmethyl)amino]carbonyl}phenyl)pyridin-2-yl]-2-furamide hydrochloride]	≤ 10	222 to 226
CC(CC(=O)Nc1cccc(-c2cc(-c3ccc(F)cc3O)nc(NC(=O)c3ccco3)c2C#N)c1)N(C)C.Cl (centres unmarked) [Example 338, N-[3-cyano-4-(3-{[3-(dimethylamino)butanoyl]amino}phenyl)-6-(4-fluoro-2-hydroxyphenyl)pyridin-2-yl]-2-furamide hydrochloride]	≤ 10	233 to 234
Cl.N#Cc1c(-c2cccc(NC(=O)C3(N)CCC3)c2)cc(-c2ccc(Cl)cc2O)nc1NC(=O)c1ccco1 [Example 65, N-[4-(3-{[(1-aminocyclobutyl)carbonyl]amino}phenyl)-6-(4-chloro-2-hydroxyphenyl)-3-cyanopyridin-2-yl]-2-furamide hydrochloride]	≤ 10	195 to 200
Cl.N#Cc1c(-c2cccc(C(=O)NCCCn3ccnc3)c2)cc(-c2ccc(F)cc2O)nc1NC(=O)c1ccco1 [Example 67, N-{3-cyano-6-(4-fluoro-2-hydroxyphenyl)-4-[3-({[3-(1H-imidazole-1-yl)propyl]amino}carbonyl)phenyl]pyridin-2-yl}-2-furamide hydrochloride]	≤ 10	173 to 174
C[C@@H](N)C(=O)Nc1cccc(-c2cc(-c3ccc(Cl)cc3O)nc(NC(=O)c3ccco3)c2C#N)c1.Cl [Example 237, N-[4-[3-(alanylamino)phenyl]-6-(4-chloro-2-hydroxyphenyl)-3-cyanopyridin-2-yl]-2-furamide hydrochloride]	≤ 10	210 to 216
Cl.N#Cc1c(-c2cccc(NC(=O)[C@H]3CCCN3)c2)cc(-c2ccc(Cl)cc2O)nc1NC(=O)c1nccs1 [Example 294, N-(3-{6-(4-chloro-2-hydroxyphenyl)-3-cyano-2-[(1,3-thiazol-2-ylcarbonyl)amino]pyridin-4-yl}phenyl)-D-prolinamide hydrochloride]	≤ 10	222 to 228
Cl.N#Cc1c(-c2cccc(NC(=O)[C@@H]3C[C@@H](O)CN3)c2)cc(-c2ccc(F)cc2O)nc1NC(=O)c1ccco1 [Example 298, (4R)—N-{3-[3-cyano-6-(4-fluoro-2-hydroxyphenyl)-2-(2-furoylamino)pyridin-4-yl]phenyl}-4-hydroxy-L-prolinamide hydrochloride]	≤ 10	260 to 262
CC(N)CC(=O)Nc1cccc(-c2cc(-c3ccc(Cl)cc3O)nc(NC(=O)c3ccco3)c2C#N)c1.Cl (centres unmarked) [Example 238, N-[4-{3-[(3-aminobutanoyl)amino]phenyl}-6-(4-chloro-2-hydroxyphenyl)-3-cyanopyridin-2-yl]-2-furamide hydrochloride]	≤ 10	206 to 214
CCCC(CC(=O)Nc1cccc(-c2cc(-c3ccc(F)cc3O)nc(NC(=O)c3ccco3)c2C#N)c1)N(C)C.Cl (centres unmarked) [Example 285, N-[3-cyano-4-(3-{[3-(dimethylamino)hexanoyl]amino}phenyl)-6-(4-fluoro-2-hydroxyphenyl)pyridin-2-yl]-2-furamide hydrochloride]	≤ 10	180 to 182
Cl.N#Cc1c(-c2cccc(C(=O)NCCCn3ccnc3)c2)cc(-c2ccc(F)cc2O)nc1NC(=O)c1cccs1 [Example 78, N-{3-cyano-6-(4-fluoro-2-hydroxyphenyl)-4-[3-({[3-(1H-imidazole-1-yl)propyl]amino}carbonyl)phenyl]pyridin-2-yl}thiophene-2-carboxamide hydrochloride]	≤ 10	195 to 196
C[C@H](N)CC(=O)Nc1cccc(-c2cc(-c3ccc(Cl)cc3O)nc(NC(=O)c3nccs3)c2C#N)c1.Cl [Example 269, N-[4-(3-{[(3S)-3-aminobutanoyl]amino}phenyl)-6-(4-chloro-2-hydroxyphenyl)-3-cyanopyridin-2-yl]-1,3-thiazole-2-carboxamide hydrochloride]	≤ 10	218 to 221
N#Cc1c(-c2cccc(CNC(=N)N)c2)cc(-c2ccccc2O)nc1NC(=O)c1cccs1.O=C(O)C(F)(F)F [Example 45, N-{4-[3-({[amino(imino)methyl]amino}methyl)phenyl]-3-cyano-6-(2-hydroxyphenyl)pyridin-2-yl}thiophene-2-carboxamide trifluoroacetate]	≤ 10	144 to 151
CN(C)[C@@H]1CCCC[C@@H]1C(=O)Nc1cccc(-c2cc(-c3ccc(F)cc3O)nc(NC(=O)c3ccco3)c2C#N)c1.Cl [Example 286, N-{3-cyano-4-[3-({[(1S,2R)-2-(dimethylamino)cyclohexyl]carbonyl}amino)phenyl]-6-(4-fluoro-2-hydroxyphenyl)pyridin-2-yl}-2-furamide hydrochloride]	≤ 10	205 to 207
Cl.N#Cc1c(-c2cccc(NC(=O)CCN)c2)cc(-c2ccc(Cl)cc2O)nc1NC(=O)c1ccco1 [Example 63, N-{4-[3-(β-alanylamino)phenyl]-6-(4-chloro-2-hydroxyphenyl)-3-cyanopyridin-2-yl}-2-furamide hydrochloride]	≤ 10	206 to 212
CCNC(CC)CC(=O)Nc1cccc(-c2cc(-c3ccc(F)cc3O)nc(NC(=O)c3ccco3)c2C#N)c1.Cl (centres unmarked) [Example 308, N-[3-cyano-4-(3-{[3-(ethylamino)pentanoyl]amino}phenyl)-6-(4-fluoro-2-hydroxyphenyl)pyridin-2-yl]-2-furamide hydrochloride]	≤ 10	233 to 238
CN(C)[C@H]1CCCC[C@H]1C(=O)Nc1cccc(-c2cc(-c3ccc(F)cc3O)nc(NC(=O)c3ccco3)c2C#N)c1.Cl [Example 287, N-{3-cyano-4-[3-({[(1R,2S)-2-(dimethylamino)cyclohexyl]carbonyl}amino)phenyl]-6-(4-fluoro-2-hydroxyphenyl)pyridin-2-yl}-2-furamide hydrochloride]	≤ 10	217 to 218
CC(C)(CN)CNC(=O)c1cccc(-c2cc(-c3ccc(Cl)cc3O)nc(NC(=O)c3ccco3)c2C#N)c1.Cl [Example 85, N-[4-(3-{[(3-amino-2,2-dimethylpropyl)amino]carbonyl}phenyl)-6-(4-chloro-2-hydroxyphenyl)-3-cyanopyridin-2-yl]-2-furamide hydrochloride]	≤ 10	241 to 244
Cl.N#Cc1c(-c2cccc(NC(=O)CCCn3ccnc3)c2)cc(-c2ccc(Cl)cc2O)nc1NC(=O)c1ccco1 [Example 242, N-[6-(4-chloro-2-hydroxyphenyl)-3-cyano-4-(3-{[4-(1H-imidazole-1-yl)butanoyl]amino}phenyl)pyridin-2-yl]-2-furamide hydrochloride]	≤ 10	166 to 170
Cl.N#Cc1c(-c2cccc(CNC(=O)CCN)c2)cc(-c2ccccc2O)nc1NC(=O)c1cccs1 [Example 44, N-[4-{3-[(β-alanylamino)methyl]phenyl}-3-cyano-6-(2-hydroxyphenyl)pyridin-2-yl]thiophene-2-carboxamide hydrochloride]	≤ 10	173 to 180
CC(C)(CN)CNC(=O)c1cccc(-c2cc(-c3ccc(F)cc3O)nc(NC(=O)c3ccco3)c2C#N)c1.Cl [Example 77, N-[4-(3-{[(3-amino-2,2-dimethylpropyl)amino]carbonyl}phenyl)-3-cyano-6-(4-fluoro-2-hydroxyphenyl)pyridin-2-yl]-2-furamide hydrochloride]	≤ 10	256 to 257
